Data published in article PMC8333425, “Discovery of a dual Ras and ARF6 inhibitor from a GPCR endocytosis screen” (Nature Communications, 2021).
Where “and” joins values, the source holds several entries; their conditions need not be identical. Equal values may be shown once.

Biological target: T1, ARF (Homo sapiens, UniProt P62330)
T1 construct: endogenous in cells; host or cells: HEK293SL
Experiment: ARF BRET sensor (GGA3-PBD-RlucII / rGFP-CAAX), AT1R-mediated
Type: cell-based
Conditions: for AngII-promoted BRET, AT1R-mediated ARF activation: individual experiments
Protocol: HEK293 cells were transfected with a BRET sensor that monitors the interaction between β-arrestins and the β-appendage of AP-2 (Fig. 2a)[26],[33]. […] The small GTPase ARF6, which binds β-arrestins and facilitates AP-2 and clathrin recruitment at the PM, is also necessary for CCPs initiation and receptor internalization. Therefore, ARF6 activity was assessed using the protein-3 binding domain (PBD) of the golgi-associated, gamma adaptin ear-containing, ARF-binding protein 3 (GGA3) fused to GST (GST-GGA3-PBD) in a pull-down assay, which allows the detection of GTP-bound ARF6 in cells[34] (Fig. 2b). […] This inhibition was selective for ARF6 since 21 had no effect on AT1R-dependent ARF1 activation (Supplementary Fig. 2a). We also devised a BRET assay to quantitatively assess 21’s action on ARF activity. The ARF BRET assay was created using the GGA3-PBD fused to RlucII (GGA3-PBD-RlucII) and the rGFP anchored at the PM (rGFP-CAAX) (Supplementary Fig. 3a). […] 21 blocked ARF’s activation by 40–60% following AT1R stimulation (Fig. 2c).
HEK293SL cells were seeded at a density of 7.5 × 10^5 cells per 100-mm dish and 24 h later, transiently transfected as such. For receptor internalization experiments, cells were transfected with 0.12 μg AT1R-RlucII, B2R-RlucII, or β2AR-RlucII and 0.48 μg of either rGFP-CAAX (to assess removal from the PM) or rGFP-FYVE (to assess accumulation in the endosomes). For β-arrestin recruitment assays, cells were transfected with 0.48 μg of receptor-YFP along with 0.12 μg of β-arrestin-RlucII. For β-arrestin/AP-2 binding experiments, cells were transfected with 1 μg Flag-AT1R, 1 μg β2-Adaptin-YFP, and 0.12 μg β-arrestin2-RlucII. For G protein activation, cells were transfected with 3 μg of sp-Flag-AT1R along with either 4.5 μg of the Gαq-polycistronic BRET sensor or 0.24 μg of the Gαi3-RlucII and 0.6 μg of GFP10-Gγ2 and Gβ1 sensors or 0.12 μg PKN-RBD-RlucII and 0.48 μg of rGFP-CAAX. For PKC activation, cells were transfected with 3 μg of sp-Flag-AT1R and 0.18 μg of the PKC sensor. For GTPase activation experiments, cells were transfected with 1 μg Flag-AT1R, 0.48 μg of rGFP-CAAX, and either 0.12 μg of GGA3-PBD-RlucII, PAK-CRIB-RlucII or Raf-RBD-RlucII. For biosensor validation experiments, cells were additionally transfected with 500 ng Flag-K-Ras-WT, Flag-K-Ras-G12V, Flag-K-Ras-SOS-CAAX, HA-ARF6-WT, HA-ARF6-T27N, Myc-Rac1-WT, Myc-Rac1-Q61L or Myc-Rac1-T17N. For PI3K/Akt activation experiments, cells were transfected with 0.48 μg of rGFP-CAAX and 0.12 μg of Akt (PH)-RlucII. After 18 h of transfection, the media was replaced and cells were divided for subsequent experiments. Cells were detached and seeded onto poly-L-ornithine-coated 96-well flat white bottom plates (BrandTech Scientific) at a density of 2.5 × 10^4 cells per well in media. The next day, cells were washed once with Tyrode’s buffer (140 mM NaCl, 2.7 mM KCl, 1 mM CaCl2, 12 mM NaHCO3, 5.6 mM D-glucose, 0.5 mM MgCl2, 0.37 mM NaH2PO4, 25 mM HEPES, pH 7.4) and left in Tyrode’s buffer. For kinetics of β-arrestin recruitment or β-arrestin binding to receptor and AP-2 experiments, cells were serum starved for 30 min, pretreated with 21 (50 µM) or Barbadin (100 µM) for 30 min, stimulated with 100 nM AngII or 1 µM BK and BRET signals were monitored at indicated times using a Victor X Light plate reader (PerkinElmer). Coelenterazine H (final concentration of 5 µM) was added 3–5 min prior to BRET measurements. Filter set was 460/80 nm and 535/30 nm for detecting the RlucII Renilla luciferase (donor) and YFP (acceptor) light emissions, respectively. The BRET ratio was determined by calculating the ratio of the light emitted by YFP over the light emitted by the RlucII. For G protein activation, cells were serum starved, pretreated with compounds for 30 min, stimulated with 100 nM AngII for 2 min (Gαq, Gαi3, and Rho sensors) or 5 min (PKC sensor). […]

T1 sequence (P62330 2-175): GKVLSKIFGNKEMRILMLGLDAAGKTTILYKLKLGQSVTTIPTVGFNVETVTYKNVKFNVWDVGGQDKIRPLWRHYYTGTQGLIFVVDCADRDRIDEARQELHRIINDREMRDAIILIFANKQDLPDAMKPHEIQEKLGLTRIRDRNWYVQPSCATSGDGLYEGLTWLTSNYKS

## CC(C)C(=O)N1CCN(c2ccc(NC(=O)c3cc4ccccc4o3)cc2Cl)CC1 [Compound 21]
50 μM
  block of ARF activation following AT1R stimulation (BRET): 40–60%
AT1R, dose-response
  IC50: 7 µM
Comp 21 50 μM, time 0 min
  AngII-promoted BRET, AT1R-mediated ARF activation: 0
Comp 21 50 μM, time 2 min
  AngII-promoted BRET, AT1R-mediated ARF activation: 0.01817 and 0.0425 and 0.0675
Comp 21 50 μM, time 5 min
  AngII-promoted BRET, AT1R-mediated ARF activation: 0.04183 and 0.1107 and 0.06017 and 0.076
Comp 21 50 μM, time 10 min
  AngII-promoted BRET, AT1R-mediated ARF activation: 0.04033 and 0.11 and 0.06283 and 0.0785
Comp 21 (50 μM), time 1 min
  AngII-promoted BRET, AT1R-mediated ARF activation: 0.04233 and 0.01117 and 0.065
Log [Comp 21] (M) -4
  Arf6 MEAN (Fig.4d): 20.8744
Log [Comp21] (M) -4.3
  Arf6 MEAN (Fig.4d): 30.1774
Log [Comp21] (M) -5
  Arf6 MEAN (Fig.4d): 40.2199
Log [Comp21] (M) -5.3
  Arf6 MEAN (Fig.4d): 84.9863
Log [Comp 21] (M) -6
  Arf6 MEAN (Fig.4d): 88.0739
Log [Comp21] (M) -6.3
  Arf6 MEAN (Fig.4d): 99.6353
Log [Comp 21] (M) -7
  Arf6 MEAN (Fig.4d): 93.4599
